In test [1] the target is T1, Recombinant human TDO comprising amino acids 19-407 (Homo sapiens, UniProt P48775).
T1 construct: Recombinant human TDO comprising amino acids 19-407 with a N-terminal hexahistidine tag; hexahistidine (His6) (N); made in house; host or cells: E. coli
The test can be described thus: TDO2 enzymatic assay (NFK quantified by LCMS). It is filed as biochemical. The note with it: 15 nM enzyme, 200 μM L-tryptophan, pH7, 30 minutes pre-incubation at RT; mean values when measured multiple times; read-out: hTDO activity (IC50 in nM). The procedure, abridged:
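NFK formed over 30 min at RT from 200 μM L-tryptophan was measured by LCMS, normalized to d5-tryptophan, after compound (0.5 nM–10 μM, duplicates, 0.6% DMSO) was preincubated 30 min with 15 nM recombinant His-tagged TDO 19-407 in phosphate buffer pH 7. IC50 from four-parameter logistic fit; repeats averaged.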

Test [2] deals with T2, Recombinant full-length human IDO1 (Homo sapiens, UniProt P14902).
T2 construct: Recombinant full-length human IDO1 with a N-terminal hexahistidine tag; hexahistidine (His6) (N); made in house; host or cells: E. coli
Description: IDO1 enzymatic assay (NFK quantified by LCMS). It is filed as biochemical. The conditions noted are these: 2 nM enzyme, 5 μM L-tryptophan, pH6.5, 30 minutes pre-incubation at RT; mean values when measured multiple times; read-out: hIDO activity (IC50 in nM). The procedure, abridged:
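His-tagged human IDO1 (2 nM) in pH 6.5 phosphate buffer with ascorbate, methylene blue and catalase was preincubated with compound (10 μM–0.5 nM, 0.6% DMSO) for 30 min at RT. The reaction then ran with 5 μM L-Trp for 30 min. NFK was measured by LCMS against a d5-Trp standard, and IC50 was obtained by four-parameter fit.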

One may read the IC50 as the midpoint of a concentration-inhibition curve.

T2 sequence (P14902 whole entry): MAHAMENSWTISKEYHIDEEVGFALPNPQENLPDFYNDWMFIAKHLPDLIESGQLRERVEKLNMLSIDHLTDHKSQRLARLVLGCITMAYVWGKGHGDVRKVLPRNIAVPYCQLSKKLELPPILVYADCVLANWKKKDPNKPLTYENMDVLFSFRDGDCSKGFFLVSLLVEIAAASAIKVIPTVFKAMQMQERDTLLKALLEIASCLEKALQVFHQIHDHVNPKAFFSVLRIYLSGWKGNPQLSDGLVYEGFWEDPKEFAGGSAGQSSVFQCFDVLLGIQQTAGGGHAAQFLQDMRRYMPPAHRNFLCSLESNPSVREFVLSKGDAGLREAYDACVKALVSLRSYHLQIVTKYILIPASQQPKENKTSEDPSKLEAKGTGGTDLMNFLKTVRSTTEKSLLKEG
T1 sequence (P48775 19-406 limits assumed): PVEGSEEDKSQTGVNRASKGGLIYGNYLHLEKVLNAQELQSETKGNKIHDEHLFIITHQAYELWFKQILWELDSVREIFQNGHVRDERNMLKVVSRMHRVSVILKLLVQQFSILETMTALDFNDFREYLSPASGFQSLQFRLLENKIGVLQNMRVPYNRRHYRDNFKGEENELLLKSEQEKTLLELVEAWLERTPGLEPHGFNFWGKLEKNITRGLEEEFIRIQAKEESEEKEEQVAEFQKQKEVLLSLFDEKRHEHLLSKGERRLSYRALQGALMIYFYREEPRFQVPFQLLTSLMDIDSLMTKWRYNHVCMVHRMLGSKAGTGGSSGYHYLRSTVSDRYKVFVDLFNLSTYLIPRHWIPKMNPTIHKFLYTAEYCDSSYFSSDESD

As for `O=S1(=O)CCC(COc2ccc(-n3cc(C(O)c4c(C5CC5)sc5cncn45)nn3)cc2)CC1` (racemic) [Example 147, rac-(2-Cyclopropyl-imidazo[5,1-b]thiazol-3-yl)-{1-[4-(1,1-dioxo-hexahydro-1I6-thiopyran-4-ylmethoxy)-phenyl]-1H-[1,2,3]triazol-4-yl}-methanol], the IC50 was above 10200 nM in test [1] and 12.9 nM in test [2].
As to `OC(c1cn(-c2ccc(OCc3ccccc3)cc2)nn1)c1c(C2CC2)sc2cncn12` (racemic) [Example 45, rac-[1-(4-Benzyloxy-phenyl)-1H-[1,2,3]triazol-4-yl]-(2-cyclopropyl-imidazo[5,1-b]thiazol-3-yl)-methanol], the results for the half-inhibitory concentration (IC50) in test [1] and in test [2] were above 10200 nM and 46.4 nM, respectively.
For the compound `OC(c1ccc(-c2ccncc2)s1)c1c(C2CC2)sc2cncn12` (racemic) [Example 168, rac-(2-Cyclopropyl-imidazo[5,1-b]thiazol-3-yl)-(5-pyridin-4-yl-thiophen-2-yl)-methanol], the concentration for half-maximal inhibition (IC50) was determined as 1060 nM in test [1] and 189 nM in test [2].
In the case of `CN(C)S(=O)(=O)c1ccc(-n2cc(C(O)c3c(C4CC4)sc4cncn34)nn2)cc1` (racemic) [Example 236, rac-4-{4-[(2-Cyclopropyl-imidazo[5,1-b]thiazol-3-yl)-hydroxy-methyl]-[1,2,3]triazol-1-yl}-N,N-dimethyl-benzenesulfonamide], the half-inhibitory concentration (IC50) was above 10200 nM in test [1] and 105 nM in test [2].
For `CC(F)(F)c1sc2cncn2c1C(O)c1cn(-c2ccc(O)c(Cl)c2)nn1` (racemic) [Example 329, rac-2-Chloro-4-(4-{[2-(1,1-difluoro-ethyl)-imidazo[5,1-b]thiazol-3-yl]-hydroxy-methyl}-[1,2,3]triazol-1-yl)-phenol], the IC50 in test [1] turned out to be 9930 nM; in test [2], 2.49 nM.
For `Cc1sc2cncn2c1C(O)c1cnn(-c2ccccc2)c1C` (racemic) [Example 98, rac-(2-Methyl-imidazo[5,1-b]thiazol-3-yl)-(5-methyl-1-phenyl-1H-pyrazol-4-yl)-methanol] the same measures were 864 nM and 186 nM.
In the case of `CCc1sc2cncn2c1C(O)c1cn(-c2cncc3ccccc23)nn1` (racemic) [Example 52, rac-(2-Ethyl-imidazo[5,1-b]thiazol-3-yl)-(1-isoquinolin-4-yl-1H-[1,2,3]triazol-4-yl)-methanol], the IC50 in test [1] was found to be 5060 nM; in test [2] it was 41.8 nM.
As to `OC(c1cn(-c2ccc(OCC3CCOCC3)cc2)nn1)c1c(C2CC2)sc2cncn12` (racemic) [Example 87, rac-(2-Cyclopropyl-imidazo[5,1-b]thiazol-3-yl)-{1-[4-(tetrahydro-pyran-4-ylmethoxy)-phenyl]-1H-[1,2,3]triazol-4-yl}-methanol], the half-inhibitory concentration (IC50) in test [1] was above 10200 nM; in test [2], 20.7 nM.
Turning to `NC(=O)Nc1ccc(-n2cc(C(O)c3c(C4CC4)sc4cncn34)nn2)cc1` (racemic) [Example 109, rac-(4-{4-[(2-Cyclopropyl-imidazo[5,1-b]thiazol-3-yl)-hydroxy-methyl]-[1,2,3]triazol-1-yl}-phenyl)-urea], the half-inhibitory concentration (IC50) in test [1] is 7110 nM; in test [2] it was 24 nM.
Turning to `CC(C)(O)COc1ccc(-n2cc(C(O)c3c(C4CC4)sc4cncn34)nn2)cc1` (racemic) [Example 139, rac-1-(4-{4-[(2-Cyclopropyl-imidazo[5,1-b]thiazol-3-yl)-hydroxy-methyl]-[1,2,3]triazol-1-yl}-phenoxy)-2-methyl-propan-2-ol], the 50% inhibitory concentration (IC50) in test [1] was above 10200 nM; in test [2] it was 14.6 nM.
Consider `COc1ccc(-n2cc(C(O)c3c(C4CC4)sc4cncn34)nn2)cc1Cl` (racemic) [Example 289, rac-[1-(3-Chloro-4-methoxy-phenyl)-1H-[1,2,3]triazol-4-yl]-(2-cyclopropyl-imidazo[5,1-b]thiazol-3-yl)-methanol], for which the half-maximal inhibitory concentration (IC50) is above 10200 nM in test [1] and 7.56 nM in test [2].

Source of the values: US20200405696A1, “INHIBITORS OF INDOLEAMINE 2,3-DIOXYGENASE AND/OR TRYPTOPHAN 2,3-DIOXYGENASE” (IDORSIA PHARMACEUTICALS LTD, priority 2018, published 2020).
